# Source: patent US9233979B2, “Compounds that are ERK inhibitors” (Merck Sharp & Dohme Corp., priority 2012, dated 2016)
# pIC50: −log10 of the molar value.
# Biological target: phosphorylated active hERK2 enzyme (Homo sapiens (Human), UniProt P28482)
# Experiment: Active Human ERK2 (hERK2) Activity Assay (IMAP-FP)
# Assay type: biochemical
# Settings: Table 6, 0.5 nM hERK2, 30 μM ATP, 10 point titration, read-out: AERK2 IC50
# Method in brief: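 IMAP fluorescence-polarization kinase assay: 0.5 nM activated hERK2 with 900 nM unlabeled plus 80 nM labeled peptide and 30 μM ATP, reacted 60 min. Quenched with IMAP beads in binding buffer with 24 mM NaCl; FP read after 60 min equilibration.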
# Sequence of phosphorylated active hERK2 enzyme (P28482 whole entry): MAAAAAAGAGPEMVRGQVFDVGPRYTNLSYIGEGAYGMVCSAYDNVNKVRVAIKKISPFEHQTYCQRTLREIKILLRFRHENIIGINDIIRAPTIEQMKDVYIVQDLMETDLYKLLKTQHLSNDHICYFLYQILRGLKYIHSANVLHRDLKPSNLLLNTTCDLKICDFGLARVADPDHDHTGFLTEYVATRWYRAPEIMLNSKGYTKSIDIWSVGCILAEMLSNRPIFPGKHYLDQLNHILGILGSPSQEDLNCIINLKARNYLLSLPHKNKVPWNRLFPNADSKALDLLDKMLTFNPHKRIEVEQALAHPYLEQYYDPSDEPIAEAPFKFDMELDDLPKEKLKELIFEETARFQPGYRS
row,SMILES,pIC50
1,"CC(C)(O)[C@@H](NC(=O)Nc1cc2[nH]nc(NC(=O)N3CCC(F)(F)C3)c2cn1)c1ccc(F)cc1 [Example 131, 3,3-difluoro-N-[6-({[(1S)-1-(4-fluorophenyl)-2-hydroxy-2-methylpropyl}-carbamoyl}amino)-1H-pyrazolo[4,3-c]pyridin-3-yl]-pyrrolidine-1-carboxamide]",8.82
2,"CC(C)(O)[C@@H](NC(=O)Nc1cc2[nH]nc(NC(=O)N3CCC(F)(F)CC3)c2cn1)c1ccc(F)cc1 [Example 132, 4,4-difluoro-N-[6-({[(1S)-1-(4-fluorophenyl)-2-hydroxy-2-methylpropyl]-carbamoyl}amino)-1H-pyrazolo[4,3-c]pyridin-3-yl]-piperidine-1-carboxamide]",8.31
3,"CC(C)(O)[C@@H](NC(=O)Nc1cc2[nH]nc(NC(=O)N3CCOCC3)c2cn1)c1ccc(F)cc1 [Example 133, N-[6-({[(1S)-1-(4-fluorophenyl)-2-hydroxy-2-methylpropyl]-carbamoyl}amino)-1H-pyrazolo[4,3-c]pyridin-3-yl]-morpholine-4-carboxamide]",8.62
4,"C[C@@H](NC(=O)Nc1cc2[nH]nc(NC(=O)N3CC(C)(O)C3)c2cn1)c1ccccc1 [Example 134, 3-hydroxy-3-methyl-N-[6-({[(1R)-1-phenylethyl]-carbamoyl}-amino)-1H-pyrazolo[4,3-c]pyridin-3-yl]-azetidine-1-carboxamide]",8.07
5,"CCNc1n[nH]c2c(C(F)(F)F)c(NC(=O)N[C@H](C)c3ccccc3)ncc12 [Example 135, (R)-1-(3-(ethylamino)-7-(trifluoromethyl)-1H-pyrazolo[4,3-c]pyridin-6-yl)-3-(1-phenylethyl)urea]",6.42
6,"C[C@@H](NC(=O)Nc1cc2[nH]nc3c2c(n1)CCN3)c1ccccc1 [Example 136, (R)-1-(1-phenylethyl)-3-(1,3,4,5-tetrahydropyrazolo[3,4,5-de][1,6]naphthyridin-7-yl)urea]",7.91
7,"CC(C)(O)[C@@H](NC(=O)Nc1cc2[nH]nc3c2c(n1)CCN3)c1ccccc1 [Example 137, (S)-1-(2-hydroxy-2-methyl-1-phenylpropyl)-3-(1,3,4,5-tetrahydropyrazolo[3,4,5-de][1,6]naphthyridin-7-yl)urea]",8.89
8,"C[C@@H]1Cc2nc(NC(=O)N[C@H](C)c3ccccc3)cc3[nH]nc(c23)N1 [Example 138, 1-((R)-4-methyl-1,3,4,5-tetrahydropyrazolo[3,4,5-de][1,6]naphthyridin-7-yl)-3-((R)-1-phenylethyl)urea]",8.23
9,"C[C@H]1Cc2nc(NC(=O)N[C@H](C)c3ccccc3)cc3[nH]nc(c23)N1 [Example 139, 1-((S)-4-methyl-1,3,4,5-tetrahydropyrazolo[3,4,5-de][1,6]naphthyridin-7-yl)-3-((R)-1-phenylethyl)urea]",8.26
10,"CC(=O)N1CCc2nc(NC(=O)N[C@H](C)c3ccccc3)cc3[nH]nc1c23 [Example 140, (R)-1-(3-acetyl-1,3,4,5-tetrahydropyrazolo[3,4,5-de][1,6]naphthyridin-7-yl)-3-(1-phenylethyl)urea]",6.95
11,"CCN1CCc2nc(NC(=O)N[C@H](C)c3ccccc3)cc3[nH]nc1c23 [Example 141, (R)-1-(3-ethyl-1,3,4,5-tetrahydropyrazolo[3,4,5-de][1,6]naphthyridin-7-yl)-3-(1-phenylethyl)urea]",7.81
12,"CC(C)N1CCc2nc(NC(=O)N[C@H](C)c3ccccc3)cc3[nH]nc1c23 [Example 142, (R)-1-(3-isopropyl-1,3,4,5-tetrahydropyrazolo[3,4,5-de][1,6]naphthyridin-7-yl)-3-(1-phenylethyl)urea]",8.92
13,"CNc1n[nH]c2cc(NC(=O)N[C@@H](c3ccccc3)[C@@H]3CCCO3)ncc12 [Example 144, 1-(3-(methylamino)-1H-pyrazolo[4,3-c]pyridin-6-yl)-3-((S)-phenyl((S)-tetrahydrofuran-2-yl)methyl)urea]",8.70
14,"CNc1n[nH]c2cc(NC(=O)N[C@@H](c3ccccc3)[C@H]3CCCO3)ncc12 [Example 145, 1-(3-(methylamino)-1H-pyrazolo[4,3-c]pyridin-6-yl)-3-((S)-phenyl((R)-tetrahydrofuran-2-yl)methyl)urea]",8.68
15,"CNc1n[nH]c2cc(NC(=O)N[C@H](c3ccccc3)[C@@H]3CCCO3)ncc12 [Example 146, 1-(3-(methylamino)-1H-pyrazolo[4,3-c]pyridin-6-yl)-3-((R)-phenyl((S)-tetrahydrofuran-2-yl)methyl)urea]",6.94
16,"CNc1n[nH]c2cc(NC(=O)N[C@H](c3ccccc3)[C@H]3CCCO3)ncc12 [Example 147, 1-(3-(methylamino)-1H-pyrazolo[4,3-c]pyridin-6-yl)-3-((R)-phenyl((R)-tetrahydrofuran-2-yl)methyl)urea]",6.61
17,"CCNc1n[nH]c2cc(NC(=O)N[C@@H](c3ccccc3)[C@@H]3CCCO3)ncc12 [Example 148, 1-[3-(ethylamino)-1H-pyrazolo[4,3-c]pyridin-6-yl]-3-{(S)-phenyl[(2S)-tetrahydrofuran-2-yl]methyl}urea]",9.10
18,"CCNc1n[nH]c2cc(NC(=O)N[C@@H](c3ccccc3)[C@H]3CCCO3)ncc12 [Example 149, 1-[3-(ethylamino)-1H-pyrazolo[4,3-c]pyridin-6-yl]-3-{(S)-phenyl[(2R)-tetrahydrofuran-2-yl]methyl}urea]",9.22

row,SMILES,pIC50
1,"CCNc1n[nH]c2cc(NC(=O)N[C@H](c3ccccc3)[C@H]3CCCO3)ncc12 [Example 150, 1-[3-(ethylamino)-1H-pyrazolo[4,3-c]pyridin-6-yl]-3-{(R)-phenyl[(2R)-tetrahydrofuran-2-yl]methyl}urea]",6.44
2,"CCNc1n[nH]c2cc(NC(=O)N[C@H](c3ccccc3)[C@@H]3CCCO3)ncc12 [Example 151, 1-[3-(ethylamino)-1H-pyrazolo[4,3-c]pyridin-6-yl]-3-{(R)-phenyl[(2S)-tetrahydrofuran-2-yl]methyl}urea]",6.50
3,"Nc1n[nH]c2cc(NC(=O)N[C@@H](c3ccccc3)[C@@H]3CCCO3)ncc12 [Example 152, 1-(3-amino-1H-pyrazolo[4,3-c]pyridin-6-yl)-3-{(S)-phenyl[(2S)-tetrahydrofuran-2-yl]methyl}urea]",9.05
4,"Nc1n[nH]c2cc(NC(=O)N[C@@H](c3ccccc3)[C@H]3CCCO3)ncc12 [Example 153, 1-(3-amino-1H-pyrazolo[4,3-c]pyridin-6-yl)-3-{(S)-phenyl[(2R)-tetrahydrofuran-2-yl]methyl}urea]",9.15
5,"Nc1n[nH]c2cc(NC(=O)N[C@H](c3ccccc3)[C@H]3CCCO3)ncc12 [Example 154, 1-(3-amino-1H-pyrazolo[4,3-c]pyridin-6-yl)-3-{(R)-phenyl[(2R)-tetrahydrofuran-2-yl]methyl}urea]",6.36
6,"Nc1n[nH]c2cc(NC(=O)N[C@H](c3ccccc3)[C@@H]3CCCO3)ncc12 [Example 155, 1-(3-amino-1H-pyrazolo[4,3-c]pyridin-6-yl)-3-{(R)-phenyl[(2S)-tetrahydrofuran-2-yl]methyl}urea]",6.31
7,"COC[C@@H](NC(=O)Nc1cc2[nH]nc(NCC3CCC3)c2cn1)c1ccccc1 [Example 156, 1-{3-[(cyclobutyl-methyl)amino]-1H-pyrazolo[4,3-c]-pyridin-6-yl}-3-[(1S)-2-methoxy-1-phenylethyl]urea]",9.15
8,"COC[C@@H](NC(=O)Nc1cc2[nH]nc(N(CC3CCC3)CC3CCC3)c2cn1)c1ccccc1 [Example 157, 1-{3-[bis(cyclobutyl-methyl)amino]-1H-pyrazolo[4,3-c]pyridin-6-yl}-3-[(1S)-2-methoxy-1-phenylethyl]urea]",7.03
9,"COC[C@@H](NC(=O)Nc1cc2[nH]nc(NC3CCOC3)c2cn1)c1ccccc1 (stereo partly drawn) [Example 158, 1-[(1S)-2-methoxy-1-phenylethyl]-3-[3-(tetrahydro-furan-3-ylamino)-1H-pyrazolo[4,3-c]pyridin-6-yl]urea]",8.96
10,"C[C@@H](NC(=O)Nc1cc2[nH]nc(NCC3CC3)c2cn1)c1ccccc1 [Example 159, 1-{3-[(cyclopropyl-methyl)amino]-1H-pyrazolo[4,3-c]-pyridin-6-yl}-3-[(1R)-1-phenylethyl]urea]",8.74
11,"C[C@@H](NC(=O)Nc1cc2[nH]nc(N(CC3CC3)CC3CC3)c2cn1)c1ccccc1 [Example 160, 1-{3-[bis(cyclopropyl-methyl)amino]-1H-pyrazolo[4,3-c]-pyridin-6-yl}-3-[(1R)-1-phenylethyl]urea]",6.55
12,"C[C@@H](NC(=O)Nc1cc2[nH]nc(NC3CCOC3)c2cn1)c1ccccc1 (stereo partly drawn) [Example 161, 1-[(1R)-1-phenylethyl]-3-[3-(tetrahydrofuran-3-ylamino)-1H-pyrazolo[4,3-c]pyridin-6-yl]urea]",8.64
13,"C[C@@H](NC(=O)Nc1cc2[nH]nc(NC3CCNCC3)c2cn1)c1ccccc1 [Example 162, 1-[(1R)-1-phenylethyl]-3-[3-(piperidin-4-ylamino)-1H-pyrazolo[4,3-c]-pyridin-6-yl]urea]",6.78
14,"CC(C)C(=O)Nc1n[nH]c2cc(NC(=O)N[C@H](C)c3ccccc3)ncc12 [Example 163, 2-methyl-N-[6-({[(1R)-1-phenylethyl]-carbamoyl}amino)-1H-pypyrazolo[4,3-c]-pyridin-3-yl]propanamide]",9.22
15,"C[C@@H](NC(=O)Nc1cc2[nH]nc(NC3CCCNC3)c2cn1)c1ccccc1 (stereo partly drawn) [Example 164, 1-[(1R)-1-phenylethyl]-3-[3-(piperidin-3-ylamino)-1H-pyrazolo[4,3-c]-pyridin-6-yl]urea]",7.52
16,"C[C@@H](NC(=O)Nc1cc2[nH]nc(NCC3CCNCC3)c2cn1)c1ccccc1 [Example 165, 1-[(1R)-1-phenylethyl]-3-{3-[(piperidin-4-ylmethyl)amino]-1H-pyrazolo[4,3-c]pyridin-6-yl}urea]",7.30
17,"C[C@@H](NC(=O)Nc1cc2[nH]nc(NCC3CCOCC3)c2cn1)c1ccccc1 [Example 166, 1-[(1R)-1-phenylethyl]-3-{3-[(tetrahydro-2H-pyran-4-yl-methyl)amino]-1H-pyrazolo[4,3-c]pyridin-6-yl}urea]",8.77
